For experiment [1], the target named is Human immunodeficiency virus type 1 protease (Human immunodeficiency virus 1) (UniProt Q72874). The experiment is described as follows: Bimolecular rate constant for the formation of HIV-1 protease complex was evaluated.
The test system of experiment [2] is H9. The experiment is described as follows: Inhibitory activity was evaluated against HIV-1 in H9 and Sup T1 cell lines as assessed by syncytium formation and reverse transcriptase assay. Type of experiment: functional, cell-based. As to conditions: Homo sapiens; call rule not given here.
Experiment [3] deals with Human immunodeficiency virus type 1 protease (Human immunodeficiency virus 1, UniProt Q72874). The experiment is described as follows: Compound was tested for its inhibitory activity against HIV-1 protease.
For experiment [4], the system named is H9. The experiment is described as follows: Inhibitory activity was evaluated against HIV-1 protease by using reverse transcription assay. The experiment is classed as functional, cell-based. As to conditions: Homo sapiens.
For a further experiment, the target named is Cathepsin D (Homo sapiens, UniProt P07339). The experiment is described as follows: Inhibition against human cathepsin D was determined.
Sequence of Cathepsin D (P07339 65-162 limits assumed): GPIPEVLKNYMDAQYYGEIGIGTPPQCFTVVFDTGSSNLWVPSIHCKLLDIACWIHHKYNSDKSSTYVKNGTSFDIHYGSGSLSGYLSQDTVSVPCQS
Sequence of Cathepsin D (P07339 169-412 limits assumed): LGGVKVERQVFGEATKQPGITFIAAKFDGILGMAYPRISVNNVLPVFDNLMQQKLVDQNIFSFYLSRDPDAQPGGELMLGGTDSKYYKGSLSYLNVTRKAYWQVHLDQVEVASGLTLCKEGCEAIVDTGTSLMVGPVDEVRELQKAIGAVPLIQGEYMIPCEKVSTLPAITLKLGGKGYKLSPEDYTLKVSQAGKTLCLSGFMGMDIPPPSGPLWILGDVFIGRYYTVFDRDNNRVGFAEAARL
In a further experiment the target is T1, Renin (Homo sapiens, UniProt P00797).
T1 sequence (P00797 whole entry): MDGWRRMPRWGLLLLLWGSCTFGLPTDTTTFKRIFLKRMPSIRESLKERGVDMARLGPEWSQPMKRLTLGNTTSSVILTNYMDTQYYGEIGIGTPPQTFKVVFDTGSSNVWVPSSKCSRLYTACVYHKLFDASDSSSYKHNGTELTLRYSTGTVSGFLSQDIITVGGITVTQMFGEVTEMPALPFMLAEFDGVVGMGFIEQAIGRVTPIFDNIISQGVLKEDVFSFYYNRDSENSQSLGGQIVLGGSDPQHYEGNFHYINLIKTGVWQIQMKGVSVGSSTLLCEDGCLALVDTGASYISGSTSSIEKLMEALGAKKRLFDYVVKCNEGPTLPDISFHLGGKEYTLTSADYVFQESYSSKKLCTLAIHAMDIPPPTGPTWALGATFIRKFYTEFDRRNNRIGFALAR
The experiment is described as follows: Inhibition against human renin was determined; IA means inactive.

A word on the IC50: it is the point on the concentration scale where inhibition reaches its midpoint. The Ki is the equilibrium dissociation constant of an inhibitor or competing ligand from its target. The low end stands for a stronger hold on the target, the high end for a looser hold on the target.

`CCN(C(C)C)S(=O)(=O)CC[C@@H]1O[C@@H]1[C@H](Cc1ccccc1)NC(=O)[C@@H](NC(=O)c1cccs1)C(C)(C)S(C)(=O)=O` gave a K inact/Ki in experiment [1] of 1.05e+06 M⁻¹ s⁻¹. Further, in the experiment on H9 [2], the IC50 is 0.0182 µM. For the same molecule, in experiment [3], the Ki is 0.0031 µM.

In experiment [1], `CC(C)(C)NS(=O)(=O)CC[C@@H]1O[C@@H]1[C@H](Cc1ccccc1)NC(=O)[C@@H](NC(=O)OCc1ccccc1)C(C)(C)S(C)(=O)=O` returned a K inact/Ki of 1.33e+06 M⁻¹ s⁻¹. The IC50 in the experiment with H9 [2] was 0.0202 µM. This molecule also yielded a Ki in experiment [3] of 0.0007 µM.

In turn, `CCN(C(C)C)S(=O)(=O)CC[C@@H]1O[C@@H]1[C@H](Cc1ccccc1)NC(=O)[C@@H](NC(=O)OCc1ccccc1)C(C)(C)S(C)(=O)=O` yielded a K inact/Ki in experiment [1] of 1.63e+06 M⁻¹ s⁻¹. For the same molecule, the IC50 in the experiment on H9 [4] was 0.0109 µM. In experiment [3], the Ki was 0.0008 µM.

In experiment [1], `CCN(c1ccccc1)S(=O)(=O)CC[C@@H]1O[C@@H]1[C@H](Cc1ccccc1)NC(=O)[C@@H](NC(=O)OCc1ccccc1)C(C)(C)S(C)(=O)=O` registered a K inact/Ki of 717000 M⁻¹ s⁻¹. In the experiment on H9 [2], this molecule gave an IC50 of 0.0138 µM. In experiment [3], the Ki amounted to 0.0046 µM.

In experiment [1], `CC(C)(C)NS(=O)(=O)CC[C@@H]1O[C@@H]1[C@H](Cc1ccccc1)NC(=O)C(CC(N)=O)NC(=O)c1ccc2ccccc2n1` (stereo partly specified) gave a K inact/Ki of 250000 M⁻¹ s⁻¹. In addition, in the experiment on H9 [2], the IC50 worked out at 0.03 µM. The molecule also showed a Ki in experiment [3] of 0.0126 µM.

`CCN(CC(C)C)S(=O)(=O)CC[C@@H]1O[C@@H]1[C@H](Cc1ccccc1)NC(=O)[C@@H](NC(=O)OCc1ccccc1)C(C)(C)S(C)(=O)=O` had a K inact/Ki in experiment [1] of 1.15e+06 M⁻¹ s⁻¹. Besides, in the experiment with H9 [2], the IC50 came to 0.0107 µM. In experiment [3], the Ki stood at 0.0029 µM.

On to `CCN(C(C)C)S(=O)(=O)CC[C@@H]1O[C@@H]1[C@H](Cc1ccccc1)NC(=O)[C@@H](NC(=O)c1ccc2ccccc2n1)C(C)(C)S(C)(=O)=O`, for which the K inact/Ki in experiment [1] is 483000 M⁻¹ s⁻¹. Moreover, the IC50 was 8.2 µM on Cathepsin D, 0.0066 µM in the experiment on H9 [2] and “Not Active” against Renin. The same molecule registered a Ki in experiment [3] of 0.007 µM.

In the case of `CC(C)C(NC(=O)C[C@@H]1O[C@@H]1[C@H](Cc1ccccc1)NC(=O)[C@H](CC(N)=O)NC(=O)c1ccc2ccccc2n1)C(C)C`, in experiment [1], the K inact/Ki worked out at 3.33e+06 M⁻¹ s⁻¹. This molecule also had an IC50 with H9 [2] of 0.02 µM.

In the case of `CCN(c1ccccc1)S(=O)(=O)CC[C@@H]1O[C@@H]1[C@H](Cc1ccccc1)NC(=O)[C@@H](NC(=O)c1ccc2ccccc2n1)C(C)(C)S(C)(=O)=O`, in experiment [1], the K inact/Ki turned out to be 650000 M⁻¹ s⁻¹. This molecule also returned an IC50 with H9 [2] of 0.0107 µM. In experiment [3], the Ki was 0.005 µM.

In experiment [1], `CC(C)N(C(=O)c1ccccc1)S(=O)(=O)CC[C@@H]1O[C@@H]1[C@H](Cc1ccccc1)NC(=O)[C@@H](NC(=O)OCc1ccccc1)C(C)(C)S(C)(=O)=O` yielded a K inact/Ki of 917000 M⁻¹ s⁻¹. Besides, the IC50 in the experiment on H9 [2] came out at 0.015 µM. Moreover, affinity in experiment [3] was put at a Ki of 0.0036 µM.

Source of the values: ChEMBL document CHEMBL1130577, “Synthesis of irreversible HIV-1 protease inhibitors containing sulfonamide and sulfone as amide bond isosteres” (Bioorg Med Chem Lett, 1997).
